Among the test systems are A498 renal; CAKI-1 renal; COLO 205 colon; HOP-62 NSCLC; HT29 colon; IGROV1 ovarian; K-562 leukemia; MOLT-4 leukemia; NCI-H226 lung; NCI-H460 lung; OVCAR-5 ovarian; RPMI-8226 leukemia; SF-295 CNS; SN12C renal; SNB-19 CNS; TK-10 renal; U251 CNS; UACC-62 melanoma; SR leukemia.
Common to all, as to test: inhibition of tumour cell growth, NCI panel, 48 h

Each structure is given as a SMILES string.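 Step 1: Grow cells in 96-well plates. Step 2: Expose to compound for 48 hours at 5 concentrations. Step 3: Interpolate endpoints linearly; if unreached, use highest concentration. At the TGI there is no net growth.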

Consider `COc1cc(CCCC(O)COc2cccc3c2C2(O)CCCCCC32)cc(OC)c1` (centres undefined), for which the TGI came out at 34.1 µM in the test with A498 renal; 44.4 µM with CAKI-1 renal; 5.4 µM in the test with COLO 205 colon; 28.7 µM in the test on HOP-62 NSCLC; 23.9 µM in the test on HT29 colon; 28.5 µM with IGROV1 ovarian. For the same molecule, the TGI is 31.1 µM in the test on K-562 leukemia; 48.2 µM with MOLT-4 leukemia; 33.9 µM in the test on NCI-H226 lung; 34.7 µM in the test with NCI-H460 lung; 31.5 µM in the test with OVCAR-5 ovarian; 42 µM in the test on RPMI-8226 leukemia. Besides, the TGI was determined as 30.5 µM in the test with SF-295 CNS; 31.8 µM in the test on SN12C renal; 32 µM in the test with SNB-19 CNS; 28.1 µM with TK-10 renal; 32.9 µM in the test with U251 CNS; 30.6 µM with UACC-62 melanoma.

Regarding `Nc1c(Cl)c([N+](=O)[O-])cc2c1OCCCCO2`, the TGI in the test with CAKI-1 renal, with COLO 205 colon, in the test with HOP-62 NSCLC, in the test on HT29 colon, with IGROV1 ovarian and in the test on K-562 leukemia was greater than 100 µM each time. The TGI with MOLT-4 leukemia, in the test on NCI-H226 lung, with NCI-H460 lung, in the test on OVCAR-5 ovarian, in the test on RPMI-8226 leukemia and in the test on SF-295 CNS was greater than 100 µM throughout. The TGI is greater than 100 µM in the test on SN12C renal; greater than 100 µM in the test on SR leukemia; greater than 100 µM in the test with TK-10 renal; 8.48 µM in the test with U251 CNS; greater than 100 µM with UACC-62 melanoma.

For `C[C@@H]1OC2(O)[C@@H]3CCCN3C(=O)N(Cc3ccccc3)N2C1=O` (some centres undefined), the TGI in the test with A498 renal, in the test with CAKI-1 renal, in the test on COLO 205 colon, in the test with HOP-62 NSCLC, with HT29 colon and with IGROV1 ovarian was greater than 100 µM in each case. Further, the TGI in the test on MOLT-4 leukemia, in the test with NCI-H226 lung, in the test on NCI-H460 lung, in the test with OVCAR-5 ovarian, in the test with SF-295 CNS and in the test with SN12C renal was greater than 100 µM throughout. In addition, the TGI with SNB-19 CNS, in the test with SR leukemia, in the test on TK-10 renal and in the test on UACC-62 melanoma was greater than 100 µM in each case.

Take `O=C(Nc1ccccc1)C(=O)C(C(=O)c1ccccc1)C(c1ccccc1)c1ccccc1` (centres undefined): the TGI with CAKI-1 renal, with COLO 205 colon, in the test on HOP-62 NSCLC, in the test with HT29 colon, in the test on IGROV1 ovarian and in the test on K-562 leukemia was greater than 10 µM in each case. The TGI in the test on MOLT-4 leukemia, in the test on RPMI-8226 leukemia, in the test on SF-295 CNS, in the test on SN12C renal, with SR leukemia and in the test with TK-10 renal was greater than 10 µM throughout. Besides, the TGI in the test on UACC-62 melanoma is greater than 10 µM.

For the molecule `O=S1c2ccc(Cl)cc2CC(SSC2Cc3cc(Cl)ccc3S(=O)c3ccccc32)c2ccccc21` (centres undefined), the TGI in the test with CAKI-1 renal, with COLO 205 colon, in the test with HOP-62 NSCLC, in the test with HT29 colon, in the test on IGROV1 ovarian and with K-562 leukemia was greater than 100 µM throughout. Besides, the TGI in the test with MOLT-4 leukemia, with NCI-H226 lung, with NCI-H460 lung, in the test on OVCAR-5 ovarian, with RPMI-8226 leukemia and in the test on SF-295 CNS was greater than 100 µM in each case. Moreover, the TGI in the test with SN12C renal, in the test on SNB-19 CNS, in the test with TK-10 renal, in the test with U251 CNS and in the test with UACC-62 melanoma was greater than 100 µM in each case.

Turning to `COC(=O)/C(=C/CC(N=C(c1ccccc1)c1ccccc1)C(=O)OC)N=C(c1ccccc1)c1ccccc1` (centres undefined), the TGI in the test with CAKI-1 renal, in the test on COLO 205 colon, in the test with HOP-62 NSCLC, in the test with HT29 colon, in the test with IGROV1 ovarian and in the test on K-562 leukemia was greater than 100 µM each time. Also, the TGI with MOLT-4 leukemia, in the test on NCI-H460 lung, in the test with RPMI-8226 leukemia, in the test on SF-295 CNS, in the test with SN12C renal and in the test on SNB-19 CNS was greater than 100 µM each time. Further, the TGI in the test on SR leukemia, with TK-10 renal, with U251 CNS and in the test with UACC-62 melanoma was greater than 100 µM each time.

On to `CN(CCO)c1nc2c(c(=O)[nH]1)CNCC2`, for which the TGI in the test with CAKI-1 renal, in the test on COLO 205 colon, in the test on HOP-62 NSCLC, in the test on HT29 colon, with IGROV1 ovarian and with K-562 leukemia was greater than 100 µM each time. Moreover, the TGI with MOLT-4 leukemia, in the test on NCI-H226 lung, in the test on NCI-H460 lung, with OVCAR-5 ovarian, with RPMI-8226 leukemia and with SF-295 CNS was greater than 100 µM in each case. Also, the TGI with SN12C renal, with SNB-19 CNS, in the test on SR leukemia, in the test with TK-10 renal, in the test with U251 CNS and in the test with UACC-62 melanoma was greater than 100 µM each time.

On to `CC1=[N+]([O-])C(C)(C)N(O)C1(C)C`, for which the TGI in the test with A498 renal, in the test on COLO 205 colon, in the test on HOP-62 NSCLC, in the test with HT29 colon, in the test with IGROV1 ovarian and with K-562 leukemia was greater than 100 µM throughout. Moreover, the TGI in the test on MOLT-4 leukemia, in the test with NCI-H226 lung, in the test with NCI-H460 lung, in the test with OVCAR-5 ovarian, in the test with RPMI-8226 leukemia and in the test with SF-295 CNS was greater than 100 µM throughout. In addition, the TGI with SN12C renal, with SNB-19 CNS, with SR leukemia, with TK-10 renal, with U251 CNS and in the test with UACC-62 melanoma was greater than 100 µM each time.

On to `COc1cc(-c2c(C)c(C)nc(OC)c2C#N)cc(OC)c1OC`, for which the TGI with A498 renal, in the test with COLO 205 colon, in the test on HOP-62 NSCLC, in the test with HT29 colon, with IGROV1 ovarian and in the test on K-562 leukemia was greater than 100 µM each time. The TGI in the test with MOLT-4 leukemia, in the test with NCI-H226 lung, in the test on NCI-H460 lung, with RPMI-8226 leukemia, with SF-295 CNS and in the test on SN12C renal was greater than 100 µM in each case. In addition, the TGI in the test on SNB-19 CNS, in the test with TK-10 renal, in the test on U251 CNS and in the test on UACC-62 melanoma was greater than 100 µM throughout.

With `Cn1c2cccc3nnc4cccc(c4c32)n1C`, the TGI in the test with A498 renal, with CAKI-1 renal, in the test with COLO 205 colon, in the test with HT29 colon, in the test with IGROV1 ovarian and in the test with K-562 leukemia was greater than 100 µM throughout. Besides, the TGI in the test with MOLT-4 leukemia, in the test on NCI-H226 lung, with NCI-H460 lung, in the test with OVCAR-5 ovarian, with RPMI-8226 leukemia and in the test with SF-295 CNS was greater than 100 µM each time. The TGI in the test on SN12C renal, in the test on SNB-19 CNS, with U251 CNS and with UACC-62 melanoma was greater than 100 µM in each case.

As for `CSC(=N)N1N=C2c3ccccc3CC[C@@H]2[C@@H]1c1ccccc1`, the TGI in the test on A498 renal was 35.2 µM; in the test with COLO 205 colon it was 26.6 µM; in the test on HOP-62 NSCLC, 32.8 µM; with HT29 colon it was 23.6 µM; in the test on IGROV1 ovarian it was 34.8 µM; in the test with K-562 leukemia it was 39.7 µM. The TGI with MOLT-4 leukemia was 35.8 µM; with NCI-H226 lung, 22.6 µM; with NCI-H460 lung, 27.2 µM; in the test on OVCAR-5 ovarian it was 34.7 µM; in the test on RPMI-8226 leukemia, 35.5 µM; in the test on SF-295 CNS it was 27.9 µM. Also, the TGI stood at 31.2 µM in the test on SN12C renal; 34 µM with SNB-19 CNS; 30.9 µM in the test with SR leukemia; 33.5 µM in the test on TK-10 renal; 31 µM in the test with U251 CNS; 41.7 µM in the test on UACC-62 melanoma.

Consider `O=C1/C(=C/c2ccccc2)CCCC/C1=C\c1ccccc1`, for which the TGI was greater than 100 µM in the test with A498 renal; greater than 100 µM in the test on CAKI-1 renal; greater than 100 µM with COLO 205 colon; greater than 100 µM with HOP-62 NSCLC; 32 µM in the test on HT29 colon; greater than 100 µM in the test on IGROV1 ovarian. Besides, the TGI was greater than 100 µM with MOLT-4 leukemia; greater than 100 µM with NCI-H226 lung; greater than 100 µM in the test on NCI-H460 lung; 97.1 µM with OVCAR-5 ovarian; greater than 100 µM in the test on SF-295 CNS; greater than 100 µM in the test on SN12C renal. The TGI with SNB-19 CNS, with SR leukemia, with TK-10 renal, in the test on U251 CNS and in the test with UACC-62 melanoma was greater than 100 µM in each case.

In the case of `CCOC(=O)C1C(c2ccc([N+](=O)[O-])cc2)NC(c2ccc([N+](=O)[O-])cc2)C(C(=O)OC)S1(=O)=O` (centres undefined), the TGI in the test on CAKI-1 renal, in the test on COLO 205 colon, in the test on HOP-62 NSCLC, with HT29 colon, in the test on IGROV1 ovarian and in the test on K-562 leukemia was greater than 100 µM throughout. Besides, the TGI in the test on MOLT-4 leukemia, with NCI-H226 lung, with NCI-H460 lung, in the test on OVCAR-5 ovarian, with RPMI-8226 leukemia and in the test with SF-295 CNS was greater than 100 µM each time. The TGI in the test with SN12C renal, with SNB-19 CNS, in the test with SR leukemia, with TK-10 renal, in the test on U251 CNS and with UACC-62 melanoma was greater than 100 µM throughout.

As for `Cc1c(CCl)c(=O)oc2c(C)c3occ(CCl)c(=O)c3cc12`, the TGI in the test on A498 renal was greater than 100 µM; in the test on COLO 205 colon, 32.9 µM; in the test on HOP-62 NSCLC, greater than 100 µM; in the test on IGROV1 ovarian, 40.9 µM; in the test on K-562 leukemia it was 23.6 µM; with MOLT-4 leukemia it was 22.8 µM. The TGI is 48.7 µM in the test on NCI-H226 lung; greater than 100 µM in the test with NCI-H460 lung; greater than 100 µM with OVCAR-5 ovarian; 26.8 µM in the test with RPMI-8226 leukemia; greater than 100 µM in the test with SF-295 CNS; 56.4 µM in the test with SN12C renal. The TGI in the test with SNB-19 CNS is 54.7 µM; in the test with TK-10 renal it was greater than 100 µM; in the test with U251 CNS it was greater than 100 µM; in the test on UACC-62 melanoma, 30.3 µM.

In the case of `O=C(/C=C\c1ccccc1-c1ccccc1)c1ccccc1`, the TGI in the test with A498 renal, in the test on CAKI-1 renal, with COLO 205 colon, with HOP-62 NSCLC, in the test with HT29 colon and in the test with IGROV1 ovarian was greater than 100 µM in each case. The TGI with K-562 leukemia, with MOLT-4 leukemia, in the test with NCI-H226 lung, with NCI-H460 lung, in the test on OVCAR-5 ovarian and with RPMI-8226 leukemia was greater than 100 µM throughout. The TGI in the test with SF-295 CNS, in the test with SN12C renal, in the test with SR leukemia, with TK-10 renal, in the test on U251 CNS and in the test with UACC-62 melanoma was greater than 100 µM throughout.

With `C=CC1(c2ccc(Br)cc2)OCCCO1`, the TGI with COLO 205 colon, with HOP-62 NSCLC, in the test on HT29 colon, in the test on IGROV1 ovarian, in the test with K-562 leukemia and in the test with MOLT-4 leukemia was greater than 100 µM each time. Also, the TGI in the test with NCI-H226 lung, with NCI-H460 lung, in the test on OVCAR-5 ovarian, in the test on RPMI-8226 leukemia, in the test on SF-295 CNS and in the test with SN12C renal was greater than 100 µM throughout. The TGI in the test on SNB-19 CNS, in the test with SR leukemia, with TK-10 renal, in the test with U251 CNS and with UACC-62 melanoma was greater than 100 µM throughout.
